Assay results taken from PubChem BioAssay AID2060508 (Molecular Pharmacology Branch, DTP, NCI, 2025).

System: 454973-116-R2-J3-PDC spheroids, viability, % test/control
Assay: Anticancer human tumor 454973-116-R2-J3-PDC patient-derived pancreatic carcinoma cell line growth inhibition [GQUAD]
Conditions: spheroids with HUVEC and MSC; for IC50: curve of first compound; for viability, T/C: stronger effect = lower value
Excerpt: DNA G-quadruplex Stabilizer Agents in Combinations in Complex Spheroids
A high-throughput screen of multi-cell type tumor spheroids was designed to identify active combinations of DNA G-quadruplex stabilizer agents and targeted small molecules. Complex spheroids include a stromal component modeled by human endothelial cells (HUVEC) and fibroblasts modeled by human mesenchymal stem cells (MSCs). The concentration ranges selected for each drug and investigational agent were based upon clinically achievable concentrations if the clinical Cmax of the agent was known.
Compounds. The drugs and investigational agents: pidnarulex (CX-5461; NSC782164), APTO-253 (NSC789042), BRACO-19 (NSC847499), peposertib (NSC802822), ceralasertib (NSC780249), elimusertib (NSC800525), camonsertib (NSC841442), AZD-1390 (NSC803789), olaparib (NSC753686), talazoparib (NSC767125), ART-558 (NSC835418), sotorasib (NSC818433), MRTX-1133 (NSC836407), SN-38 (NSC673596), topotecan (NSC609699), etoposide (NSC141540), doxorubicin (NSC123127), gemcitabine (NSC613327), 5-fluorouracil (NSC19893), paclitaxel (NSC125973), vemurafenib (NSC761431), panobinostat (NSC761190), R-306465 (JNJ-16241199; NSC773264), adavosertib (NSC754352), TP-3654 (NSC805149), carboplatin (NSC241240), KSQ-4279 (NSC840948), and staurosporine (NSC755774) were obtained from the National Cancer Institute (NCI) Developmental Therapeutics Program Chemical Repository (34). The FDA-approved anticancer drug set is available from the NCI Developmental Therapeutics Program. […] The stock solutions were prepared in dimethyl sulfoxide (DMSO, Sigma-Aldrich, St. Louis, MO, cat. D2650) at 800-fold the tested concentration and stored at -70 degrees C prior to their use. All drugs and investigational agents were tested over a range starting from a high concentration at or near the clinical Cmax and decreasing in half-log increments. If the clinical Cmax for an agent had not been determined, the highest concentration tested was 10 microM.
2.3 Cell Culture. All cells were maintained in an incubator at 37 degrees C and 5% CO2 with 95% humidity. The PDC lines were cultured according to standard operating procedures established by the NCI PDMR. All PDCs were thawed and cultured in Matrigel-coated flasks prepared with a working solution of 1X Ham's F-12 nutrient mix, without supplementation (Invitrogen, cat. 11765054), 100 U/mL penicillin-streptomycin (Invitrogen, cat. 15140122), and 2.5% Matrigel (Corning Inc., cat. 354248) for the first three passages. The 857933-349-R-J2-PDC line was cultured in 6C/Colon 1B media, which includes advanced DMEM/F-12 (Thermo Fisher Scientific, cat. 12634028), 10 mM HEPES (Thermo Fisher Scientific, cat. 15630080), 1X GlutaMAX supplement (Thermo Fisher Scientific, cat. 35050061), 0.1 mg/mL primocin (InvivoGen, cat. ant-pm-2), 10% defined fetal bovine serum, heat inactivated (HyClone Laboratories Inc., cat. SH30070.03HI), 50% L-WRN conditioned media (ATCC, cat. CRL-3276), 1.25 mM N-Acetyl-L-cysteine (Sigma-Aldrich, cat. A9165), 10 mM nicotinamide (Sigma-Aldrich, cat. N0636), 1X B-27 supplement (Thermo Fisher Scientific, cat. 17504044), 1X N-2 supplement (Thermo Fisher Scientific, cat. 17502048), 10 microM Y-27632 dihydrochloride (Tocris Bioscience, cat. 1254), and 50 ng/mL human EGF recombinant protein (Thermo Fisher Scientific, cat. PHG0311). The 485176-168-R4-J1-PDC line was cultured in Panc media, which includes all 6C/Colon 1B media components plus 100 ng/mL human FGF-10 (Thermo Fisher Scientific, cat. 100-26), 500 nM SB-431542 (Selleckchem, cat. S1067), and gastrin (Tocris, cat. 3006).
[…]
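Note: spheroids exposed to compounds for seven days.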

**Q.** For CCc1c2c(nc3ccc(O)cc13)-c1cc3c(c(=O)n1C2)COC(=O)[C@]3(O)CC + CN(C)c1ccc(Nc2c3ccc(NC(=O)CCN4CCCC4)cc3nc3cc(NC(=O)CCN4CCCC4)ccc23)cc1, which IC50 (second compound 0.0316 µM) is on record?
**A.** 1.67 nM

**Q.** And the IC50 (second compound 0.1 µM)?
**A.** 1.71 nM

**Q.** And the IC50 (second compound 0.316 µM)?
**A.** 1.52 nM

**Q.** And the IC50 (second compound 1 µM)?
**A.** 1.68 nM

**Q.** And the IC50 (second compound 3.16 µM)?
**A.** 1.63 nM

**Q.** What about the IC50 (second compound 10 µM) of the same compound?
**A.** 1.48 nM

**Q.** What about the viability, T/C (second compound 0.0316 µM, first compound 0.000999 µM) of the same compound?
**A.** 67.9%

**Q.** What about the viability, T/C (second compound 0.0316 µM, first compound 0.00316 µM) of the same compound?
**A.** 23.9%

**Q.** What about the viability, T/C (second compound 0.0316 µM, first compound 0.00999 µM) of the same compound?
**A.** 21.6%

**Q.** What about the viability, T/C (second compound 0.0316 µM, first compound 0.0316 µM) of the same compound?
**A.** 15.2%

**Q.** What about the viability, T/C (second compound 0.0316 µM, first compound 0.0999 µM) of the same compound?
**A.** 6.24%

**Q.** And the viability, T/C (second compound 0.0316 µM, first compound 0.316 µM)?
**A.** 5.45%

**Q.** And the viability, T/C (second compound 0.1 µM, first compound 0.000999 µM)?
**A.** 68.1%

**Q.** What about the viability, T/C (second compound 0.1 µM, first compound 0.00316 µM) of the same compound?
**A.** 25.9%

**Q.** And the viability, T/C (second compound 0.1 µM, first compound 0.00999 µM)?
**A.** 21.8%

**Q.** What about the viability, T/C (second compound 0.1 µM, first compound 0.0316 µM) of the same compound?
**A.** 14.1%

**Q.** And the viability, T/C (second compound 0.1 µM, first compound 0.0999 µM)?
**A.** 6.39%

**Q.** What about the viability, T/C (second compound 0.1 µM, first compound 0.316 µM) of the same compound?
**A.** 4.95%

**Q.** What about the viability, T/C (second compound 0.316 µM, first compound 0.000999 µM) of the same compound?
**A.** 61.4%

**Q.** What about the viability, T/C (second compound 0.316 µM, first compound 0.00316 µM) of the same compound?
**A.** 27.2%

**Q.** What about the viability, T/C (second compound 0.316 µM, first compound 0.00999 µM) of the same compound?
**A.** 22.3%

**Q.** And the viability, T/C (second compound 0.316 µM, first compound 0.0316 µM)?
**A.** 12.3%

**Q.** And the viability, T/C (second compound 0.316 µM, first compound 0.0999 µM)?
**A.** 7.81%

**Q.** And the viability, T/C (second compound 0.316 µM, first compound 0.316 µM)?
**A.** 5.5%

**Q.** What about the viability, T/C (second compound 1 µM, first compound 0.000999 µM) of the same compound?
**A.** 65.6%

**Q.** And the viability, T/C (second compound 1 µM, first compound 0.00316 µM)?
**A.** 27.5%

**Q.** And the viability, T/C (second compound 1 µM, first compound 0.00999 µM)?
**A.** 23.8%

**Q.** What about the viability, T/C (second compound 1 µM, first compound 0.0316 µM) of the same compound?
**A.** 11.9%

**Q.** What about the viability, T/C (second compound 1 µM, first compound 0.0999 µM) of the same compound?
**A.** 8.79%

**Q.** And the viability, T/C (second compound 1 µM, first compound 0.316 µM)?
**A.** 5.09%

**Q.** And the viability, T/C (second compound 3.16 µM, first compound 0.000999 µM)?
**A.** 62.5%

**Q.** What about the viability, T/C (second compound 3.16 µM, first compound 0.00316 µM) of the same compound?
**A.** 30.7%

**Q.** What about the viability, T/C (second compound 3.16 µM, first compound 0.00999 µM) of the same compound?
**A.** 24.4%

**Q.** What about the viability, T/C (second compound 3.16 µM, first compound 0.0316 µM) of the same compound?
**A.** 13.8%

**Q.** What about the viability, T/C (second compound 3.16 µM, first compound 0.0999 µM) of the same compound?
**A.** 11.1%

**Q.** What about the viability, T/C (second compound 3.16 µM, first compound 0.316 µM) of the same compound?
**A.** 5.7%

**Q.** What about the viability, T/C (second compound 10 µM, first compound 0.000999 µM) of the same compound?
**A.** 59.1%

**Q.** What about the viability, T/C (second compound 10 µM, first compound 0.00316 µM) of the same compound?
**A.** 31.2%

**Q.** And the viability, T/C (second compound 10 µM, first compound 0.00999 µM)?
**A.** 24.9%

**Q.** What about the viability, T/C (second compound 10 µM, first compound 0.0316 µM) of the same compound?
**A.** 19.7%

**Q.** What about the viability, T/C (second compound 10 µM, first compound 0.0999 µM) of the same compound?
**A.** 12.6%

**Q.** And the viability, T/C (second compound 10 µM, first compound 0.316 µM)?
**A.** 9.24%
